The test system of data set [1] is human non-small cell lung cancer cells (H460). Kind of data set: XTT cell proliferation assay, H460 cells, 48 h. In kind it is cell-based. The settings on record: read-out: % Survival. The procedure:
(§1) Selected compounds of Formula I were tested for anti-cancer activity in vitro using a human colon carcinoma cells (HT-29) and human non-small cell lung cancer cells (H460). The cells were maintained in α-MEM medium (Wisent, St-Bruno, Qc) supplemented with 10% FBS, and grown at 37° C. in an atmosphere of 5% CO2. Cells were transferred onto 150 mm tissue culture plates and grown until sub-confluency (70-80%) prior to their use.
(§2) The anti-cancer activity in vitro was evaluated by a cell proliferation assay based on the ability of live cells to reduce the tetrazolium salt XTT to orange coloured compounds of formazan (XTT cell proliferation kit II, Roche Applied Science, Montreal, QC).
(§3) Approximately 4×10^3 colon cancer cells (HT-29) or 2×10^3 non-small cell lung cancer cells (NCI-H460) in 100 μl of complete culture medium were plated onto 96-well microtiter plates and incubated overnight at 37° C. The medium was then removed by inverting the plate and patting on a sterile absorbent cloth. Fifty μl of medium containing the test compound at either 25 or 100 μM, were added to the wells containing cells and incubated at 37° C. in an atmosphere of 5% CO2 for 48 h. Following incubation, 25 μl of an XTT reaction mixture (XTT at a final concentration of 0.3 mg/ml) were added to each well and the plates were incubated for a further 4 h. The absorbance of each sample was then determined at a wavelength of 490 nm/650 nm as reference. Each compound was tested in duplicate and the results are reported as averages.
(In general: Formazan colour is commonly taken as a measure of viable cells.)

Data set [2] has as its system human colon carcinoma cells (HT-29). Put plainly: XTT cell proliferation assay, HT-29 cells, 48 h. In kind it is cell-based. The settings on record: read-out: % Survival; for viability at 25 µM: 25 μM compound; for viability at 100 µM: 100 μM compound. The method, then:
as §1, §2, §3

[3] abbreviates: NCI-H460 cells, 25 μM compound, 48 h, XTT.
Setting [4] is: NCI-H460 cells, 100 μM compound, 48 h, XTT.

Read-outs that look alike come from different tables or passages of the source.

By melting point is commonly meant the temperature, or range, at which the solid turns liquid.

Molecule `c1ccc(-c2[nH]c3ccccc3c2-c2nc3c4ccccc4c4ccccc4c3[nH]2)cc1` gave a melting point of 240 to 242 °C.

The molecule `O=[N+]([O-])c1ccc2c3ccccc3c3nc(-c4c[nH]c5ccccc45)[nH]c3c2c1` came in with a melting point of 365 to 366 °C.

`Brc1ccc2[nH]cc(C=Nc3ccc4c5ccccc5c5nc(-c6c[nH]c7ccc(Br)cc67)[nH]c5c4c3)c2c1` had a melting point of 236 to 237 °C.

Molecule `Cc1[nH]c2ccccc2c1-c1nc2c3ccccc3c3ccc([N+](=O)[O-])cc3c2[nH]1` returned a melting point of 335 to 336 °C.

The molecule `Nc1ccc2c3ccccc3c3nc(-c4c[nH]c5ccc(Br)cc45)[nH]c3c2c1` came in with a melting point of 300 to 303 °C.

Regarding `CCc1c2c(nc3ccc(OC(=O)N4CCC(N5CCCCC5)CC4)cc13)-c1cc3c(c(=O)n1C2)COC(=O)[C@]3(O)CC` [CPT-11, irinotecan, reference compound], the viability at 25 µM is 32.2% in data set [1] (setting [3]) and 82.3% in data set [2]. Further, the figures for the viability at 100 µM in data set [1] (setting [4]) and in data set [2] were 6.1% and 51.1%, respectively.

In the case of `CC(=O)n1c(-c2c(C)n(C(C)=O)c3ccccc23)nc(-c2ccccc2)c1-c1ccccc1` [Compound 5], the viability at 25 µM in data set [1] (setting [3]) turned out to be 102%; in data set [2], 111%. Moreover, the results for the viability at 100 µM in data set [1] (setting [4]) and in data set [2] were 106% and 111%, respectively.

Regarding `Brc1ccc2[nH]cc(-c3nc(-c4ccccc4)c(-c4ccccc4)[nH]3)c2c1` [Compound 6], the viability at 25 µM was 10.4% in data set [1] (setting [3]) and 11.7% in data set [2]. Also, the viability at 100 µM in data set [1] (setting [4]) worked out at 1.9%; in data set [2], 3.2%.

For the molecule `COc1ccc(-c2nc(-c3c(C)[nH]c4ccccc34)[nH]c2-c2ccc(OC)cc2)cc1` [Compound 9], the viability at 25 µM was determined as 98.2% in data set [1] (setting [3]) and 68.3% in data set [2]. Further, the viability at 100 µM in data set [1] (setting [4]) is 8.4%; in data set [2] it was 15.1%.

As for `COc1ccc(-c2nc(-c3c[nH]c4ccc(Br)cc34)[nH]c2-c2ccc(OC)cc2)cc1` [Compound 10], the viability at 25 µM in data set [1] (setting [3]) turned out to be 26.9%; in data set [2], 25.8%. The figures for the viability at 100 µM in data set [1] (setting [4]) and in data set [2] were 2.7% and 7.6%, respectively.

Turning to `Cc1[nH]c2ccccc2c1-c1nc(-c2ccc(N(C)C)cc2)c(-c2ccc(N(C)C)cc2)[nH]1` [Compound 11], the viability at 25 µM was 98.8% in data set [1] (setting [3]) and 108% in data set [2]. For the same molecule, the figures for the viability at 100 µM in data set [1] (setting [4]) and in data set [2] were 102% and 94.3%, respectively.

Regarding `Cc1[nH]c2ccccc2c1-c1nc(-c2ccc(Br)cc2)c(-c2ccc(Br)cc2)[nH]1` [Compound 13], the figures for the viability at 25 µM in data set [1] (setting [3]) and in data set [2] were 102% and 106%, respectively. For the same molecule, the viability at 100 µM in data set [1] (setting [4]) worked out at 96.2%; in data set [2], 82.4%.

In the case of `Brc1ccc(-c2nc(-c3c[nH]c4ccc(Br)cc34)[nH]c2-c2ccc(Br)cc2)cc1` [Compound 14], the viability at 25 µM in data set [1] (setting [3]) came to 83.5%; in data set [2] it was 55.2%. Besides, the viability at 100 µM in data set [1] (setting [4]) was 1.8%; in data set [2], 3.8%.

Turning to `Clc1ccc(-c2nc(-c3c[nH]c4ccc(Br)cc34)[nH]c2-c2ccc(Cl)cc2)cc1` [Compound 20], the viability at 25 µM in data set [1] (setting [3]) was found to be 98.6%; in data set [2] it was 100%. The viability at 100 µM in data set [1] (setting [4]) was 82.1%; in data set [2], 28.1%.

With `Cc1ccc(-c2nc(-c3c(C)[nH]c4ccccc34)[nH]c2-c2ccc(C)cc2)cc1` [Compound 23], the results for the viability at 25 µM in data set [1] (setting [3]) and in data set [2] were 96.3% and 98.2%, respectively. Further, the viability at 100 µM worked out at 92.1% in data set [1] (setting [4]) and 45.7% in data set [2].

As to `Cc1[nH]c2ccccc2c1-c1nc(-c2cccs2)c(-c2cccs2)[nH]1` [Compound 25], the viability at 25 µM in data set [1] (setting [3]) worked out at 99.5%; in data set [2], 63.9%. For the same molecule, the viability at 100 µM turned out to be 89% in data set [1] (setting [4]) and 39.8% in data set [2].

As to `Cc1[nH]c2ccccc2c1-c1nc(-c2ccncc2)c(-c2ccc(F)cc2)[nH]1` [Compound 27], the viability at 25 µM in data set [1] (setting [3]) amounted to 93.5%; in data set [2] it was 62.3%. The values for the viability at 100 µM in data set [1] (setting [4]) and in data set [2] were 43.1% and 35%, respectively.

Take `Cc1[nH]c2ccccc2c1-c1nc(-c2cccc([N+](=O)[O-])c2)c(-c2cccc([N+](=O)[O-])c2)[nH]1` [Compound 29]: in data set [1] (NCI-H460, 48 h), the viability at 25 µM was 73.8% and the viability at 100 µM turned out to be 20.2%. In data set [2], the viability at 25 µM worked out at 37.1% and the viability at 100 µM is 20.9%.

On to `Cc1[nH]c2ccccc2c1-c1nc(-c2ccccc2)c(-c2ccc(Cl)cc2)[nH]1` [Compound 31], for which the viability at 25 µM in data set [1] (setting [3]) worked out at 94%; in data set [2], 98.6%. Further, the values for the viability at 100 µM in data set [1] (setting [4]) and in data set [2] were 37.6% and 24.9%, respectively.

For `Clc1ccc(-c2[nH]c(-c3c[nH]c4ccc(Br)cc34)nc2-c2ccccc2)cc1` [Compound 32], the viability at 25 µM in data set [1] (setting [3]) turned out to be 15%; in data set [2], 22.7%. Also, the viability at 100 µM in data set [1] (setting [4]) was determined as 2.9%; in data set [2] it was 7.7%.

On to `Cc1[nH]c2ccccc2c1-c1nc(-c2ccccc2)c(-c2ccc([N+](=O)[O-])cc2)[nH]1` [Compound 33], for which the viability at 25 µM in data set [1] (setting [3]) came out at 73.4%; in data set [2] it was 56.1%. For the same molecule, the viability at 100 µM is 9.4% in data set [1] (setting [4]) and 10% in data set [2].

Regarding `O=[N+]([O-])c1ccc(-c2[nH]c(-c3c[nH]c4ccc(Br)cc34)nc2-c2ccccc2)cc1` [Compound 34], the results for the viability at 25 µM in data set [1] (setting [3]) and in data set [2] were 17.4% and 22.8%, respectively. The viability at 100 µM in data set [1] (setting [4]) was 7.6%; in data set [2], 10.8%.

Take `Cc1[nH]c2ccccc2c1-c1nc(-c2ccccc2)c(-c2ccc(F)cc2)[nH]1` [Compound 35]: the figures for the viability at 25 µM in data set [1] (setting [3]) and in data set [2] were 83.8% and 44.1%, respectively. Moreover, the figures for the viability at 100 µM in data set [1] (setting [4]) and in data set [2] were 1.2% and 2.5%, respectively.

For `Fc1ccc(-c2[nH]c(-c3c[nH]c4ccc(Br)cc34)nc2-c2ccccc2)cc1` [Compound 36], the viability at 25 µM was determined as 24.5% in data set [1] (setting [3]) and 31.6% in data set [2]. The viability at 100 µM in data set [1] (setting [4]) stood at 2.4%; in data set [2], 4.7%.

With `Cc1[nH]c2ccccc2c1-c1nc(-c2ccc(Oc3ccccc3)cc2)c(-c2ccc(Oc3ccccc3)cc2)[nH]1` [Compound 38], the values for the viability at 25 µM in data set [1] (setting [3]) and in data set [2] were 98.8% and 67%, respectively. Further, the viability at 100 µM stood at 12.2% in data set [1] (setting [4]) and 35.7% in data set [2].

As to `Cc1[nH]c2ccc(Br)cc2c1-c1nc(-c2ccc(Oc3ccccc3)cc2)c(-c2ccc(Oc3ccccc3)cc2)[nH]1` [Compound 39], the viability at 25 µM in data set [1] (setting [3]) is 98.1%; in data set [2], 96.2%. In addition, the viability at 100 µM in data set [1] (setting [4]) was found to be 17%; in data set [2], 53%.

For `Cc1[nH]c2ccccc2c1-c1nc(-c2ccc(-c3ccccc3)cc2)c(-c2ccc(-c3ccccc3)cc2)[nH]1` [Compound 40], the viability at 25 µM came to 97.6% in data set [1] (setting [3]) and 79.1% in data set [2]. Besides, the viability at 100 µM in data set [1] (setting [4]) was found to be 7.7%; in data set [2] it was 36.7%.

`Brc1ccc2[nH]cc(-c3nc(-c4ccc(-c5ccccc5)cc4)c(-c4ccc(-c5ccccc5)cc4)[nH]3)c2c1` [Compound 41]: the melting point is 155 to 158 °C.

With `Cc1[nH]c2ccccc2c1-c1nc(-c2ccccc2)c(-c2ccc(Br)cc2)[nH]1` [Compound 42], the values for the viability at 25 µM in data set [1] (setting [3]) and in data set [2] were 66.1% and 59.9%, respectively. In addition, the viability at 100 µM in data set [1] (setting [4]) turned out to be 1.2%; in data set [2] it was 1.8%.

As for `Brc1ccc(-c2[nH]c(-c3c[nH]c4ccc(Br)cc34)nc2-c2ccccc2)cc1` [Compound 43], the values for the viability at 25 µM in data set [1] (setting [3]) and in data set [2] were 18.8% and 28%, respectively. Moreover, the figures for the viability at 100 µM in data set [1] (setting [4]) and in data set [2] were 3% and 5.7%, respectively.

Turning to `Cc1[nH]c2ccccc2c1-c1nc2c3ccccc3c3ccccc3c2[nH]1` [Compound 44], in data set [1] (NCI-H460, 48 h), the viability at 25 µM turned out to be 77.3% and the viability at 100 µM is 3.4%. Further, in data set [2], the viability at 25 µM was found to be 63.6% and the viability at 100 µM worked out at 6.5%.

Consider `c1ccc2c(-c3nc4c5ccccc5c5ccccc5c4[nH]3)c[nH]c2c1` [Compound 46], for which, in data set [1] (NCI-H460, 48 h), the viability at 25 µM worked out at 11.5% and the viability at 100 µM is 1.9%. In data set [2], the viability at 25 µM is 16.1% and the viability at 100 µM came to 4.5%.

`COc1ccc(-c2nc(-c3ccccc3)c(-c3ccccc3)[nH]2)c(OC)c1` [Compound 73]: the viability at 25 µM in data set [1] (setting [3]) came out at 89.2%; in data set [2], 65%. Further, the viability at 100 µM in data set [1] (setting [4]) amounted to 53.5%; in data set [2], 62.2%.

With `COC(=O)c1ccc2c(-c3nc(-c4ccccc4)c(-c4ccccc4)[nH]3)c[nH]c2c1` [Compound 83], the viability at 25 µM came out at 101% in data set [1] (setting [3]) and 100% in data set [2]. Besides, the values for the viability at 100 µM in data set [1] (setting [4]) and in data set [2] were 109% and 110%, respectively.

Source of the values: patent US10080739B2, “Aryl imidazoles and their use as anti-cancer agents” (Aptose Biosciences Inc., priority 2003, dated 2018).
